From patent US10800783B2, “CDK2/4/6 inhibitors” (Pfizer Inc., priority 2016, dated 2020) come the findings set out here.

In assay [1] the target is T1, CDK6/Cyclin D1 (Homo sapiens (Human), UniProt Q00534). Nature of the assay: biochemical.
Assay [2] deals with T1, CDK6/Cyclin D1. Conditions: read-out: CDK6_Ki; non-phosphorylated CDK6/Cyclin D1, 2 mM ATP.
The next assay has as its target CDK2/Cyclin E1 (Homo sapiens (Human), UniProt P24941). Nature of the assay: biochemical.
Assay [3] concerns HCC1806 mouse tumor xenograft. Description: HCC1806 tumor model (mouse xenograft). It counts as in vivo. The note with it: NU/NU female mice; 30, 50 and 75 mpk PO BID, 14 days. As for the experimental part: • Source: HCC1806 (# CRL 2335, ATCC, Manassas, Va.)
The HCC1806 tumor cell line was cultured in RPMI1640 media supplemented with 10% Fetal Bovine Serum (FBS). To establish a HCC1806 xenograft model, 5×10^6 cells per mouse were implanted subcutaneously into right hind flank NU/NU female mice. Cells were suspended in 50% Cultrex Basement Membrane Extract and 50% RPMI 1640 media serum free media prior to implantation.
Animals were randomized 7 days after cells implantation with each group consisting of 13 mice. Treatment began when tumors reached 100 mm^3 to 170 mm^3 in size on Day 7. Test compounds were prepared in 0.1% Tween, 0.5% Methyl cellulose in water and dosed PO at 30, 50, and 75 mg/kg as a suspension BID for 14 days. Mice receiving no drugs were given vehicle BID for 14 days. Tumor volumes were measured twice a week with an electric caliper, with tumor volumes calculated using Length×Width×Width/2 formula. Animal weights were recorded twice weekly.

Assay [4] has as its system OVCAR3 mouse tumor xenograft. Nature of the assay: Ovcar3 tumor model (mouse xenograft). The class given is in vivo. Conditions: NSG mice; 10 mpk PO QD, 50 mpk PO QD and 50 mpk PO BID, 14 days. The protocol: Ovcar3 tumor cell line, purchased from ATCC (ATCC HTB-161™) was cultured in RPMI1640 (1×) media (Gibco™ cat #11875-093) with 10% FBS (Gibco™ cat #26140-079). To establish a Ovcar3 xenograft model, 5×10^6 cells per mouse was implanted subcutaneously into right hind flank NSG mice (#5557-NOD.cg-PrkdcJackson Lab). Cells were suspended in 50% matrigel (Cultrex Basement Membrane Extract (BME), Trevigen's Basement Membrane Matrix) and 50% RPMI1640 (1×) media (Gibco™ cat #11875-093) serum free media prior to implantation.
Animals were randomized 39 days after cells implantation with each group consisted of 4 mice. Treatment began when tumors reached 100 mm^3-190 mm^3 in size. Test compounds were prepared in 40% Captisol and dosed PO at 10 and 50 mg/kg QD or at 50 mg/kg BID as a suspension for 14 days. Animals were taken down at designated time. Mice receiving no drugs were given vehicle QD or BID for 14 days. Tumor volumes were measured once prior to randomization with an electric caliper, with tumor volumes were calculated using Length×Width×Width/2 formulation. Tumor volumes were measured twice a week with an electric caliper, with tumor volumes calculated using Length×Width×Width/2 formula. Animal weights were recorded twice weekly.

Each structure is given as a SMILES string. pKi: −log10 of the molar value. Where two headings read alike, the source gives them in different places.

T1 sequence (Q00534 whole entry): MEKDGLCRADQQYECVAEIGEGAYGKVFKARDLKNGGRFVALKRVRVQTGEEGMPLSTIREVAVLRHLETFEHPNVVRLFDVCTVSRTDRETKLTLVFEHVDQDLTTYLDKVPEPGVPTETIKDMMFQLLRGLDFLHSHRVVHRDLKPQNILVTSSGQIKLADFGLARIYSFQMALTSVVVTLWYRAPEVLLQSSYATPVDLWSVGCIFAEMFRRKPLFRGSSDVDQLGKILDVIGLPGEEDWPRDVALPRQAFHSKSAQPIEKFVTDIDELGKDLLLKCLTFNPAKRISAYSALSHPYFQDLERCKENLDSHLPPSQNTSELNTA
T1 sequence (P24385 whole entry partner): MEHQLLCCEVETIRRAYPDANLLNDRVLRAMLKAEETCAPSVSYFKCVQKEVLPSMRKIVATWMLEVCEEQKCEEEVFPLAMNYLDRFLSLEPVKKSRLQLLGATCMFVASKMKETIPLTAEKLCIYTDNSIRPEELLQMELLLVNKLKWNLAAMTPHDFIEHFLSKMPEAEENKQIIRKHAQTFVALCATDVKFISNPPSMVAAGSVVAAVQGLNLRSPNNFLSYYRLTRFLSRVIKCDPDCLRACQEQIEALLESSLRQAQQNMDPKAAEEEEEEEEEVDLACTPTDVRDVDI
Procedure for CDK2/Cyclin E1: The assay was initiated with the addition of ATP, following a fifteen minutes pre-incubation of enzyme and inhibitor at room temperature in the reaction mixture. The reaction was stopped after 45 minutes at room temperature by the addition of 50 μL of 80 mM EDTA, pH 7.5.

The compound `Cc1cc2cnc(NC3CCN(S(=O)(=O)NC[C@@H]4CCCO4)CC3)nc2n([C@H]2CCC[C@]2(C)O)c1=O` (stereo in doubt) [Example 101] showed a pKi on CDK6/Cyclin D1 [1] of 7.63.

For `C[C@@]1(O)CCC[C@H]1n1c(=O)ccc2cnc(NC3CCN(S(=O)(=O)C4CCS(=O)(=O)C4)CC3)nc21` (single isomer, unassigned) [Example 71], at CDK6/Cyclin D1 [2], the pKi is 8.81.

On to `C[C@]1(O)CCC[C@@H]1n1c(=O)ccc2cnc(NC3CCN(S(=O)(=O)NC[C@H]4CCCO4)CC3)nc21` (stereo in doubt) [Example 65], for which, on CDK6/Cyclin D1 [1], the pKi is 7.59.

Take `Cc1cc2cnc(NC3CCN(S(=O)(=O)NC[C@@H]4CCCO4)CC3)nc2n([C@@H]2CCC[C@@]2(C)O)c1=O` (stereo in doubt) [Example 100]: the pKi on CDK6/Cyclin D1 [1] is 8.97.

For the compound `Cc1cc2cnc(NC3CCN(S(=O)(=O)NC[C@H]4CCCO4)CC3)nc2n([C@H]2CCC[C@]2(C)O)c1=O` (stereo in doubt) [Example 103], the pKi at CDK6/Cyclin D1 [1] was 7.71.

As to `C[C@@]1(O)CCC[C@H]1n1c(=O)ccc2cnc(NC3CCN(S(=O)(=O)NC[C@@H]4CCCO4)CC3)nc21` (stereo in doubt) [Example 62], the pKi at CDK6/Cyclin D1 [1] was 8.24.

`C[C@@]1(O)CCC[C@H]1n1c(=O)ccc2cnc(NC3CCN(S(=O)(=O)NC[C@H]4CCCO4)CC3)nc21` (stereo in doubt) [Example 64] had a pKi at CDK6/Cyclin D1 [1] of 8.33.

On to `CNS(=O)(=O)N1CCC(Nc2ncc3ccc(=O)n([C@@H]4CCC[C@H]4O)c3n2)CC1` [Example 55], for which, on CDK2/Cyclin E1, the pKi is 8.33.

Consider `C[C@]1(O)CCC[C@@H]1n1c(=O)ccc2cnc(NC3CCN(S(=O)(=O)NC[C@@H]4CCCO4)CC3)nc21` (stereo in doubt) [Example 63], for which the pKi at CDK6/Cyclin D1 [1] was 7.78.

Regarding `C[C@@]1(O)CCC[C@H]1n1c(=O)ccc2cnc(NC3CCN(S(C)(=O)=O)CC3)nc21` [Example 2, 8-[(1R,2R)-2-hydroxy-2-methylcyclopentyl]-2-{[1-(methylsulfonyl)piperidin-4-yl]amino}pyrido[2,3-d]pyrimidin-7(8H)-one], the “inhibition of tumor growth (mm^3)” value in assay [3] and in assay [4] was “dose dependent inhibition of tumor growth” throughout.

Compound `Cc1cc2cnc(NC3CCN(S(=O)(=O)NC[C@H]4CCCO4)CC3)nc2n([C@@H]2CCC[C@@]2(C)O)c1=O` (stereo in doubt) [Example 102] had a pKi at CDK6/Cyclin D1 [1] of 9.10.
